Results reported in patent US20250129430A1, “HIGH ATP-AFFINITY PROTEIN AS THERAPEUTIC TARGET FOR INTRACTABLE CANCER MOLECULAR SUBTYPES AND INHIBITOR THEREOF” (VeraVerse Co., Ltd., priority 2021, published 2025).

Key:
Experiment in all cases: Cell viability drug screen, 12-point dose-response AUC
Assay type in all cases: cell-based, human
MKN28 = MKN28 cells; 72 hours
Outline: (§1)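 AUC comes from 12-point half-log dose–response curves, normalized to DMSO-treated cells and integrated trapezoidally, repeats averaged. Luminescent viability read after 72 h compound exposure at 37 °C; cells plated 5×10^3 per well 24 h before dosing.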

SNU1967 = SNU1967 cells; 72 hours
Outline: as §1

YCC11 = YCC11 cells (SEM subtype); 72 hours
Outline: as §1

SNU620 = SNU620 cells; 72 hours
Outline: as §1

MKN45 = MKN45 cells (non-SEM subtype); 72 hours
Outline: (§2)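 Viability: luminescence (Glo kit, 15 min RT), normalized to 0.5% DMSO vehicle. Dosing: half-log, 12 concentrations, 72 h. Cells: 5×10^3/well, treated 24 h after plating. Value: trapezoidal AUC, mean of repeats.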

NCC24 = NCC24 cells; 72 hours
Outline: as §1

OCUM1 = OCUM1 cells; 72 hours
Outline: as §1

SNU668 = SNU668 cells (SEM subtype); 72 hours
Outline: as §1

AGS = AGS cells (non-SEM subtype); 72 hours
Outline: as §2

YCC2 = YCC2 cells; 72 hours
Outline: as §1

YCC3 = YCC3 cells; 72 hours
Outline: as §1

NCC19 = NCC19 cells; 72 hours
Outline: as §1

SK4 = SK4 cells (SEM subtype); 72 hours
Outline: as §1

SNU1750 = SNU1750 cells (SEM subtype); 72 hours
Outline: as §1

MKN74 = MKN74 cells; 72 hours
Outline: as §2

SNU601 = SNU601 cells; 72 hours
Outline: as §1

NCC59 = NCC59 cells; 72 hours
Outline: as §1

Hs746T = Hs746T cells (SEM subtype); 72 hours
Outline: as §1

SNU719 = SNU719 cells; 72 hours
Outline: as §2

SNU484 = SNU484 cells (SEM subtype); 72 hours
Outline: as §1

SNU216 = SNU216 cells (non-SEM subtype); 72 hours
Outline: as §2

SNU638 = SNU638 cells; 72 hours
Outline: as §1

SNU1 = SNU1 cells; 72 hours
Outline: as §1

MKN1 = MKN1 cells; 72 hours
Outline: as §1

NCC20 = NCC20 cells; 72 hours
Outline: as §1

KATO3 = KATO3 cells; 72 hours
Outline: as §1

SNU16 = SNU16 cells; 72 hours
Outline: as §1

NCI_N87 = NCI_N87 cells; 72 hours
Outline: as §1

FU97 = test system: FU97; design: Average Area Under the Viability Curve (AUC), AUC norm value: scale not given here; settings: FU97 cells; 72 hours
Outline: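 Trapezoidal AUC of a 12-point, DMSO-normalized dose-response curve. Luminescent viability was measured after 72 h of exposure at 37° C to half-log serial dilutions (0.5% DMSO control), dosed 24 h after plating FU97 cells at 5×10^3 per well.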

**Q.** What does the source list for CN(C)Cc1c(C(=O)NCCOc2ccc(C(=O)NO)cc2)oc2ccccc12 [PCI-24781]?
**A.** Average Area Under the Viability Curve (AUC), AUC norm value (MKN28): −0.378; Average Area Under the Viability Curve (AUC), AUC norm value (SNU1967): −1.126; Average Area Under the Viability Curve (AUC), AUC norm value (YCC11): −0.09531; Average Area Under the Viability Curve (AUC), AUC norm value (SNU620): −0.6966; Average Area Under the Viability Curve (AUC), AUC norm value (MKN45): 2.259; Average Area Under the Viability Curve (AUC), AUC norm value (NCC24): −0.2766; Average Area Under the Viability Curve (AUC), AUC norm value (OCUM1): 0; Average Area Under the Viability Curve (AUC), AUC norm value (SNU668): 0.53; Average Area Under the Viability Curve (AUC), AUC norm value (AGS): −1.161; Average Area Under the Viability Curve (AUC), AUC norm value (YCC2): 0.00064; Average Area Under the Viability Curve (AUC), AUC norm value (YCC3): 0.8426; Average Area Under the Viability Curve (AUC), AUC norm value (NCC19): 0.3282; Average Area Under the Viability Curve (AUC), AUC norm value (SK4): 0.451; Average Area Under the Viability Curve (AUC), AUC norm value (SNU1750): −1.499; Average Area Under the Viability Curve (AUC), AUC norm value (MKN74): 0.2128; Average Area Under the Viability Curve (AUC), AUC norm value (SNU601): 0.6141; Average Area Under the Viability Curve (AUC), AUC norm value (NCC59): 0.9766; Average Area Under the Viability Curve (AUC), AUC norm value (Hs746T): −0.03183; Average Area Under the Viability Curve (AUC), AUC norm value (SNU719): 1.428; Average Area Under the Viability Curve (AUC), AUC norm value (SNU484): 0.1533; Average Area Under the Viability Curve (AUC), AUC norm value (SNU216): 0.03042; Average Area Under the Viability Curve (AUC), AUC norm value (SNU638): −0.06055; Average Area Under the Viability Curve (AUC), AUC norm value (SNU1): 0.3429; Average Area Under the Viability Curve (AUC), AUC norm value (MKN1): 0.6581; Average Area Under the Viability Curve (AUC), AUC norm value (NCC20): −1.065; Average Area Under the Viability Curve (AUC), AUC norm value (KATO3): −0.2111; Average Area Under the Viability Curve (AUC), AUC norm value (SNU16): −1.233; Average Area Under the Viability Curve (AUC), AUC norm value (NCI_N87): −0.3803; Average Area Under the Viability Curve (AUC), AUC norm value (FU97): −1.786
